From the OligoGym collection
Where “and” joins values, the source holds several entries; their conditions need not be identical. Identical values can stand only once. After the bases stand the sugars from the 5' end (letter, count) and the backbone: PS all phosphorothioate, else s phosphorothioate and o phosphodiester by linkage. Methylation of C is not given here. e = 2'-O-(2-methoxyethyl) (MOE); d = 2'-deoxy (DNA)

Target: DGAT2
Conditions: ASO

| Sequence | target mRNA inhibition (HepG2, 0.12 µM) | target mRNA inhibition (HepG2, 2.5 µM) | target mRNA inhibition (HepG2, 10 µM) | target mRNA inhibition (HepG2, 20 µM) [%] |
| --- | --- | --- | --- | --- |
| GGCATGGAGCTCAGAGACTC (sugars e3 d14 e3, PS) | 74% |  |  |  |
| GGGAAAGGTCTTCTCCAGCT (sugars e5 d10 e5, PS) |  | 86% and 85% | 92% and 91% |  |
| GGGACTCAGTGTCCTCCTTA (sugars e5 d10 e5, PS) |  | 69% | 78% |  |
| GGGTTCTTGTCCTGGTCCCA (sugars e5 d10 e5, PS) |  | 79% and 66% | 90% |  |
| GGTCAGCAGGTTGTGTGTCT (sugars e2 d13 e5, PS) | 45% |  |  |  |
| GGTCTGGGAACAGCAGCATC (sugars e5 d10 e5, PS) |  | 59% | 79% |  |
| GGTGAATAGCTATGTCTAAA (sugars e5 d10 e5, PS) |  | 70% and 55% | 91% and 85% |  |
| GGTGCTCTCATTTCTTATCT (sugars e5 d10 e5, PS) |  | 56% and 59% | 82% and 92% |  |
| GGTGGGAAACTTGGAAACTT (sugars e5 d10 e5, PS) | 37% |  |  |  |
| GGTGGTCAGCAGGTTGTGTG (sugars e5 d10 e5, PS) | 29% |  |  |  |
| GGTTATTGCAACCACTAGGA (sugars e5 d10 e5, PS) |  | 80% | 91% |  |
| GTAAGCCTCGGTGTCCT (sugars e3 d10 e4, PS) |  | 62% | 79% |  |
| GTAAGGGTATTCTGCTCATA (sugars e5 d10 e5, PS) |  |  | 86% and 95% |  |
| GTACAAGTTTCTCCACCTAT (sugars e5 d10 e5, PS) |  | 68% and 88% | 79% and 87% |  |
| GTAGACTCTCCATGAGCCTA (sugars e5 d10 e5, PS) |  | 49% | 88% |  |
| GTATCCAAAGATATAGTTCC (sugars e5 d10 e5, PS) | 8% |  |  |  |
| GTCACTGACTCACAACAGCA (sugars e5 d10 e5, PS) |  | 58% | 92% |  |
| GTCAGCAGGTTGTGTGTCTT (sugars e2 d13 e5, PS) | 58% |  |  |  |
| GTCAGCAGGTTGTGTGTCTT (sugars e3 d14 e3, PS) | 61% |  |  |  |
| GTCCTCCTTAGCTTTAATCC (sugars e5 d10 e5, PS) |  | 62% | 85% |  |
| GTCTCTCATAATTGCCAGTT (sugars e5 d10 e5, PS) |  | 53% and 66% | 83% and 87% |  |
| GTCTTCACCAGCTGGATGGG (sugars e5 d10 e5, PS) | 42% |  |  |  |
| GTGCAAGAGTTACCTCCTCC (sugars e5 d10 e5, PS) |  | 80% and 78% | 94% and 92% |  |

| Sequence | target mRNA inhibition (HepG2, 0.12 µM) | target mRNA inhibition (HepG2, 2.5 µM) | target mRNA inhibition (HepG2, 10 µM) | target mRNA inhibition (HepG2, 20 µM) [%] |
| --- | --- | --- | --- | --- |
| GTGCAGAATATGTACATGAG (sugars e5 d10 e5, PS) | 43% |  |  |  |
| GTGGTCAGCAGGTTGTGTGT (sugars e5 d10 e5, PS) | 44% | 0% |  |  |
| GTGTCGGAGGAGAAGAGGCC (sugars e5 d10 e5, PS) | 52% |  |  |  |
| GTGTCTTCACCAGCTGGATG (sugars e5 d10 e5, PS) | 49% | 16% |  |  |
| GTTCTTCCAACCAGTGTTTG (sugars e5 d10 e5, PS) |  | 47% | 81% |  |
| GTTGCCATCATACTAGACTA (sugars e5 d10 e5, PS) |  | 65% | 85% |  |
| TAACCACAGCGATAATCACA (sugars e5 d10 e5, PS) |  | 60% | 93% |  |
| TAAGGAAAACTTAGGCATGC (sugars e5 d10 e5, PS) |  | 75% | 69% |  |
| TAAGGGTATTCTGCTCATAA (sugars e5 d10 e5, PS) |  | 63% | 93% |  |
| TACCTGCTATGCTGAGAGCA (sugars e5 d10 e5, PS) |  | 65% | 80% |  |
| TACCTTATCTTTGTCCACAT (sugars e5 d10 e5, PS) |  |  | 78% and 91% |  |
| TAGAGGTTTACTGCATAGCT (sugars e5 d10 e5, PS) |  | 84% and 72% | 85% and 92% |  |
| TAGCATTGCCACTCCCATTC (sugars e2 d13 e5, PS) | 60% |  |  |  |
| TAGCCAGGTAAGGCCGTATG (sugars e2 d13 e5, PS) | 51% |  |  |  |
| TAGGATGCTTAACTTCTGCT (sugars e5 d10 e5, PS) |  | 58% | 85% |  |
| TATTTGAAGATAAAGTCAGA (sugars e5 d10 e5, PS) | 0% |  |  |  |
| TCACATGCCTGAGGGCAGCA (sugars e5 d10 e5, PS) |  | 66% | 86% |  |
| TCACCAGGGCCTCCATGTAC (sugars e2 d13 e5, PS) | 3% |  |  |  |
| TCACCTGCTTGTACACTTCA (sugars e5 d10 e5, PS) | 40% |  |  |  |
| TCAGAGACTCAGCCGCACCC (sugars e2 d13 e5, PS) | 56% |  |  |  |
| TCAGAGACTCAGCCGCACCC (sugars e3 d14 e3, PS) | 41% |  |  |  |
| TCAGCAGGTTGTGTGTCTTC (sugars e3 d14 e3, PS) | 54% |  |  |  |
| TCAGCCTAGAGGCCCTGGAC (sugars e5 d10 e5, PS) | 26% |  |  |  |

| Sequence | target mRNA inhibition (HepG2, 0.12 µM) | target mRNA inhibition (HepG2, 2.5 µM) | target mRNA inhibition (HepG2, 10 µM) | target mRNA inhibition (HepG2, 20 µM) [%] |
| --- | --- | --- | --- | --- |
| TCCAATGCACCTTGTATTAA (sugars e5 d10 e5, PS) |  | 72% and 52% | 92% and 83% |  |
| TCCACCTAGCTCATGGTGGC (sugars e5 d10 e5, PS) | 21% |  |  |  |
| TCCCATTCTTTGAAAGCAAA (sugars e5 d10 e5, PS) | 31% |  |  |  |
| TCCTGGTCCCAGTACTTTCT (sugars e5 d10 e5, PS) |  | 71% and 73% | 91% and 92% |  |
| TCTCATGCTAGGTCCTGTGC (sugars e5 d10 e5, PS) |  | 89% and 74% | 90% and 88% |  |
| TCTCCTCTGCTTCTTGGGCA (sugars e5 d10 e5, PS) |  | 69% and 67% | 85% and 82% |  |
| TCTCGAATATCCCTAATAAC (sugars e5 d10 e5, PS) |  | 34% | 87% |  |
| TCTGGAACTTCTTCTGGACC (sugars e5 d10 e5, PS) | 43% |  |  |  |
| TCTTCACCAGCTGGATGGGA (sugars e5 d10 e5, PS) | 50% |  |  |  |
| TCTTGCCAGGCATGGAGCTC (sugars e5 d10 e5, PS) | 47% |  |  |  |
| TCTTTGCTTGCCAGGTGAGC (sugars e5 d10 e5, PS) |  | 67% | 71% |  |
| TGACCAGGAAGGCCACACCT (sugars e5 d10 e5, PS) | 15% |  |  |  |
| TGACTGCATTCTTGCCAGGC (sugars e5 d10 e5, PS) |  | 16% | 69% |  |
| TGAGGCCAAGGACAGAGGTT (sugars e5 d10 e5, PS) |  | 59% | 85% |  |
| TGATAGCATTGCCACTCCCA (sugars e3 d14 e3, PS) | 66% |  |  |  |
| TGCAATGTTGCCATCATACT (sugars e5 d10 e5, PS) |  | 65% and 49% | 91% and 83% |  |
| TGCAGAAGGCACCCAGGCCC (sugars e5 d10 e5, PS) | 46% |  |  |  |
| TGCAGCTTGGAGGAGGAGTA (sugars e5 d10 e5, PS) | 36% |  |  |  |
| TGCCACTCCCATTCTTTGAA (sugars e5 d10 e5, PS) |  | 0% | 62% |  |
| TGCGCGATTCACTGAGGACC (sugars e5 d10 e5, PS) |  | 51% | 87% |  |
| TGCTGCTCAGAAGGCCAGGC (sugars e5 d10 e5, PS) | 42% |  |  |  |
| TGGAGCTCAGAGACTCAGCC (sugars e2 d16 e2, PS) | 37% |  |  |  |
| TGGATGGGAAAGTAGTCTCG (sugars e5 d10 e5, PS) | 40% |  |  |  |

| Sequence | target mRNA inhibition (HepG2, 0.12 µM) | target mRNA inhibition (HepG2, 2.5 µM) | target mRNA inhibition (HepG2, 10 µM) | target mRNA inhibition (HepG2, 20 µM) [%] |
| --- | --- | --- | --- | --- |
| TGGCCCTGTGCTCTGTGGGC (sugars e5 d10 e5, PS) |  |  | 35% and 33% |  |
| TGGCTCAGTTCACCTCCAGG (sugars e5 d10 e5, PS) |  | 53% | 86% |  |
| TGGCTTCCTCAGGGCCCACC (sugars e5 d10 e5, PS) |  | 79% | 87% |  |
| TGGGAACTTCTTGCTCACTT (sugars e5 d10 e5, PS) | 43% |  |  |  |
| TGGTCAGCAGGTTGTGTGTC (sugars e2 d13 e5, PS) | 57% |  |  |  |
| TGGTCAGCAGGTTGTGTGTC (sugars e5 d10 e5, PS) | 55% and 43% | 19% | 72% | 83 |
| TGTGTGACCTTGGGCAAGTT (sugars e5 d10 e5, PS) |  | 61% and 57% | 78% and 88% |  |
| TGTGTGTCTTCACCAGCTGG (sugars e5 d10 e5, PS) | 55% | 28% | 73% | 94 |
| TGTTATCCGAGTTGAATTCT (sugars e5 d10 e5, PS) | 45% |  |  |  |
| TTAAATAACCCACAGACACC (sugars e5 d10 e5, PS) | 0% |  |  |  |
| TTAAGCTTTGTGACCTTGGG (sugars e5 d10 e5, PS) | 67% |  |  |  |
| TTACTCCACCTAGCTCATGG (sugars e5 d10 e5, PS) | 6% |  |  |  |
| TTCAAAAAGTAGCTACTGCA (sugars e5 d10 e5, PS) | 47% |  |  |  |
| TTCACCAGCTGGATGGGAAA (sugars e5 d10 e5, PS) | 26% |  |  |  |
| TTCACCTCCAGGACCTCAGT (sugars e5 d10 e5, PS) | 46% |  |  |  |
| TTCATCTTTCCAGATCCGGA (sugars e5 d10 e5, PS) |  | 71% | 92% |  |
| TTCCTCATCTATACAGTGGG (sugars e5 d10 e5, PS) |  | 57% and 72% and 73% | 89% and 82% and 92% |  |
| TTCCTGGTGGTCAGCAGGTT (sugars e5 d10 e5, PS) | 61% |  |  |  |
| TTCGGACCCACTGTGACCTC (sugars e2 d13 e5, PS) | 71% |  |  |  |
| TTGAAAGCAAATAGTCTATG (sugars e5 d10 e5, PS) | 42% |  |  |  |
| TTGAAATCCAATGCACCTTG (sugars e5 d10 e5, PS) |  | 62% | 93% |  |
